Measured values from patent US20140287495A1, “Methods of Inducing Differentiation of Stem Cells” (ES Cell International Pte LTD, priority 2001, published 2014).

Columns and labels:
[1] = test system: P19 EC cells; experiment: Induction of beating muscle in replated P19 EC aggregates (hanging-drop assay); format: cell-based, mouse; conditions: P19EC aggregates, day 10
Method: END-2 cells and hES cells were cultured as described in Example 1. The hES2 cell line from ES Cell International Pte Ltd was used in all experiments. […] Co-cultures were then grown for up to 6 weeks and scored for the presence of areas of beating muscle from 5 days onwards. HepG2 cells, a carcinoma cell line resembling liver parenchymal cells (Knowles et al, (1980) Science 209:497-9), were cultured in DMEM plus 10% FCS and passaged twice weekly. […] Hanging-drop cultures of P19 EC cells were initiated and maintained in DMEM/Ham's F12 (1:1), as described previously (Mummery et al, 1991), using regular FCS while bulk production of P19 embryoid bodies in the presence or absence of END-2 conditioned medium for isolation of RNA for Northern blotting, was in the presence of charcoal-stripped FCS, as described (Mummery et al, 1991) to reduce background levels of cardiomyocyte differentiation caused by lipophilic substances possibly with retinoid-like activity in FCS. P19 clone 6 were cultured in aMEM and treated aMEM conditioned by END-2 cells. For electrophysiology, beating aggregates were dissociated using collagenase and replated on gelatine-coated coverslips. […]

[2] = test system: Brachyury T; experiment: Northern blot of Brachyury T expression in P19EC aggregates; format: cell-based, mouse; conditions: FIG. 10B
Method: (§1) END-2 cells and hES cells were cultured as described in Example 1. The hES2 cell line from ES Cell International Pte Ltd was used in all experiments. […] Co-cultures were then grown for up to 6 weeks and scored for the presence of areas of beating muscle from 5 days onwards. HepG2 cells, a carcinoma cell line resembling liver parenchymal cells (Knowles et al, (1980) Science 209:497-9), were cultured in DMEM plus 10% FCS and passaged twice weekly. […] Hanging-drop cultures of P19 EC cells were initiated and maintained in DMEM/Ham's F12 (1:1), as described previously (Mummery et al, 1991), using regular FCS while bulk production of P19 embryoid bodies in the presence or absence of END-2 conditioned medium for isolation of RNA for Northern blotting, was in the presence of charcoal-stripped FCS, as described (Mummery et al, 1991) to reduce background levels of cardiomyocyte differentiation caused by lipophilic substances possibly with retinoid-like activity in FCS. P19 clone 6 were cultured in aMEM and treated aMEM conditioned by END-2 cells. For electrophysiology, beating aggregates were dissociated using collagenase and replated on gelatine-coated coverslips.
RNA was isolated from P19 aggregates and poly A+RNA selected, as described previously (Mummery et al, 1990, Dev. Biol. 142: 406-413).
Background differentiation levels are reduced virtually to zero if the FCS is passed over an activated charcoal column (DCC-FCS) to remove residual retinoids; in addition, differentiation is blocked by activin (van den Eijnden-van Raaij et al, 1991, Mech. Dev. 33:157-166). […] The P19EC assay system was preferred because these cells are feeder independent for undifferentiated growth. […] Moreover, the induction of Brachyury T is blocked by the additional presence of activin (FIG. 10B), consistent with its ability to block the formation of beating muscle in aggregates. The transient expression of Brachyury T is similar to that observed during early mesoderm differentiation during gastrulation of the mouse embryo.

[3] = test system: hES-derived cardiomycytes; experiment: Beating of hES-derived cardiomyocytes in response to pharmacological agonists; format: cell-based, human; conditions: hES2/END-2 co-culture derived cardiomyocytes; basal beating 45-60 times per minute
Method: as §1
The majority of the experiments described here were carried out using the hES2 cell line (Reubinoff et al, 2000). […] Oct-4 expression thus correlated with phenotypic characteristics of undifferentiated cells. hES cells were subcultured by transferring small clumps of undifferentiated cells either to new, mit.C-treated MEFs or confluent cultures of mit.C-treated END-2 cells. After approximately 5d under these conditions, epithelial cells became evident which over the next few days become fluid-filled cysts (FIG. 1A). […] In addition, by 10 d areas of rhythmically contracting cells in more solid aggregates become evident (FIG. 1A,3e) with a variety of overall morphologies (FIG. 1B,3e). […]

[4] = test system: P19 EC cells; conditions: END-2 conditioned medium induced differentiation; cited from earlier work

## C[S+](C)[O-] [DMSO, dimethyl sulphoxide]
[1]
  aggregates beating: All aggregates beat
[2]; aggregation phase, first 3 days, Northern blot
  Brachyury T (early mesoderm marker) expression: induced

## C[N+](C)(C)CCOC(N)=O [carbachol]
[3]
  beating of hES-derived cardiomyocytes in response to agonist: upregulated

## CC(C)NCC(O)c1ccc(O)c(O)c1 (centres unmarked) [isoprenaline]
[3]
  beating of hES-derived cardiomyocytes in response to agonist: upregulated

## CNC[C@H](O)c1cccc(O)c1 [phenylephrine]
[3]
  beating of hES-derived cardiomyocytes in response to agonist: upregulated

## activin: factor that blocks Brachyury T induction and the formation of beating muscle in aggregates
[2]; P19EC aggregates
  DMSO induced Brachyury T expression in presence of activin: blocked
  END-2 CM induced Brachyury T expression in additional presence of activin: blocked
[4]
  cardiomyocyte differentiation of P19 EC aggregates in presence of activin: blocked
